The target of one assay is PCSK9 (Homo sapiens, UniProt Q8NBP7). As to the kind of experiment: PCSK9/EGF(A) TR-FRET binding assay. To be noted: TR-FRET, read-out: PCSK9/EGF(A) IC50. A general note: In TR-FRET formats the signal depends on donor and acceptor labels being close together.
For a further assay, the target named is T1, PCSK9Δhelix (Homo sapiens, UniProt Q8NBP7).
T1 construct: Human PCSK9 construct M1-Q692 with an engineered TEV site (residue deletion Y166, R167); made in house; host or cells: CHO
T1 sequence (Q8NBP7 with tags, fused parts or gaps limits assumed): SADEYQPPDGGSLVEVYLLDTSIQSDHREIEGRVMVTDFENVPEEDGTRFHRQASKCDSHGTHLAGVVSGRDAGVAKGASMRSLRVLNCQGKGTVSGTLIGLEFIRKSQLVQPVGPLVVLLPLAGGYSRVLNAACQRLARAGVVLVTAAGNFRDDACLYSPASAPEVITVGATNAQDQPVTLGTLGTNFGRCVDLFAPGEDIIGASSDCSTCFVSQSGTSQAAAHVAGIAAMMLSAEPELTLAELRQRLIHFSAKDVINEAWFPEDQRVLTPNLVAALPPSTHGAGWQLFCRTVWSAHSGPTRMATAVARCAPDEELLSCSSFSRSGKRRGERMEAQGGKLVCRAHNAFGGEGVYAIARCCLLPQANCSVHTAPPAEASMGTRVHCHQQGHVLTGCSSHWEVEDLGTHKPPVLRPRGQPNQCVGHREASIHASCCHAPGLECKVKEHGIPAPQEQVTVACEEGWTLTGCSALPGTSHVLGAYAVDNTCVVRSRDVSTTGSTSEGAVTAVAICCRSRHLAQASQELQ
T1 sequence (Q8NBP7 31-152 partner limits assumed): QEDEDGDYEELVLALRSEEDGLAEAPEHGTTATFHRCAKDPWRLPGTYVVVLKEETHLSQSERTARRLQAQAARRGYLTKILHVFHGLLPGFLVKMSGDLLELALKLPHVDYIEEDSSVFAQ
The assay can be described thus: PCSK9Δhelix/Ab20 TR-FRET binding assay. To be noted: for IC50: TR-FRET, Table 8D, disulfide-cyclized extension peptides, read-out: PCSK9Δhelix/Ab20 IC50.

For another assay, the system named is His-EGF(A)-Fc. The assay can be described thus: His-EGF(A)-Fc TR-FRET counterscreen. To be noted: TR-FRET counterscreen; Table 8D; * = some inhibition at highest concentrations, not sufficient to fit an IC50.
Setting [1] is: Table 8D, disulfide-cyclized extension peptides.

Read-outs that look alike come from different tables or passages of the source. Numbered stars: 1 amine (or outer) side, 2 acyl side, 3 side chain; on linkers, the order of the positions; unused ones are H or OH. Bridge positions count the residues as written; N and C are the ends. Square brackets hold non-standard residues; d marks the D form. Peptide text beside a SMILES is read from it. NH(CH2)9CO = O=C(CCCCCCCCCN[*:1])[*:2]; NH(CH2)8CO = O=C(CCCCCCCCN[*:1])[*:2]; Aoc = NCCCCCCCC(=O)O

PCSK9, sequence (Q8NBP7 153-692): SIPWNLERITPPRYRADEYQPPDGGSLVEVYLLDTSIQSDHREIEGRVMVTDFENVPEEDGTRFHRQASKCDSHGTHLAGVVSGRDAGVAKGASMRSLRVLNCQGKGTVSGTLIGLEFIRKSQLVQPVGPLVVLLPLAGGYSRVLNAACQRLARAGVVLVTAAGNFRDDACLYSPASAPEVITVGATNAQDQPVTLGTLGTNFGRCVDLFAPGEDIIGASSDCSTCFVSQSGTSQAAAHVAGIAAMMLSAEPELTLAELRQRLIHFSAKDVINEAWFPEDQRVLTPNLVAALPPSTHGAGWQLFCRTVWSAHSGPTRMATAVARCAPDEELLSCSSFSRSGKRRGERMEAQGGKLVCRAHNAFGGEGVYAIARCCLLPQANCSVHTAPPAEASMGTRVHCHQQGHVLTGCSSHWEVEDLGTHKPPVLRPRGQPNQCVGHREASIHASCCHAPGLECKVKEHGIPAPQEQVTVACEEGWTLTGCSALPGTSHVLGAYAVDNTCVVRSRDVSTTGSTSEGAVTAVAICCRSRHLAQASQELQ
PCSK9, sequence (Q8NBP7 31-152 partner limits assumed): as the sequence (Q8NBP7 31-152 partner limits assumed) above
Protocol for His-EGF(A)-Fc: The former was based on a TF-FRET assay to measure the association of the EGF(A) domain of the LDLR to PCSK9 (“PCSK9/EGF(A) binding assay”) whilst the latter was based on a TR-FRET assay to measure binding of Ab20 to PCSK9Δhelix (“PCSK9Δhelix/Ab20 binding assay”).
The ability of compounds to inhibit binding to PCSK9 was evaluated with a panel of time-resolved fluorescence resonance energy transfer (TR-FRET) binding assays. […] The PCSK9Δhelix/Ab20 binding assay evaluated the ability of compounds to compete with Ab20 for binding to the N-terminal groove region in a His-tagged, PCSK9Δhelix construct. […] Signal generation in the PCSK9 binding assays was dependent upon the binding interaction to bring into close proximity the His-tag on the PCSK9 and the Fc-tag on the ligand. Anti-His-APC was bound to the His-tag, and anti-Fc-europium was bound to the Fc-tag. When these two antibodies were in close proximity and were irradiated with light at 340 nm, the europium was excited and emitted energy at 615 nm. This energy was taken up by the APC and was emitted as light at 665 nm. Compounds that competed with the ligand reduced the energy transfer and thus the emission at 665 nm. In the His-EGFA-Fc molecule in the counterscreen, the two tags were always in close proximity, thus any reduction in emission at 665 nm was due to interference with the detection system.
Compounds were solubilized and dilutions were prepared in DMSO. […] The plate was centrifuged to mix the well contents and allowed to incubate for 30 min. […] The TR-FRET signal was read on a ViewLux reader (PerkinElmer) with excitation at 340 nm and emission at 615 and 665 nm with a 50-μs time delay between excitation and measurement of emission. The TR-FRET ratio was calculated as the fluorescence emission at 665 nm divided by the fluorescence emission at 615 nm. The normalized TR-FRET ratios were plotted as a function of the compound concentrations, and the IC50 values were determined using a 4-parameter logistic regression.
In black 1536-well assay plates (MaKO, Aurora® Microplates, Whitefish, Mont.), 40 nL of peptide in DMSO were preincubated with 2 μL His-tagged PCSK9 plus anti-His-allophycocyanin in assay buffer (50 mM Tris-HCl, pH 7.5, 150 mM NaCl, 2 mM CaCl2, 0.01% Tween®-20, 0.1% bovine gamma globulins, and protease inhibitor cocktail) for 30 min. Then 2 μL of Fc-tagged ligand and anti-Fc-europium in assay buffer were added and allowed to incubate for 2 h.

With `CC[C@H](C)[C@@H]1NC(=O)[C@H](CCCNC(=N)N)NC(=O)[C@H](CCC(N)=O)NC(=O)[C@H](CC(C)C)NC(=O)[C@H](C)NC(=O)[C@H](Cc2c[nH]c3ccccc23)NC(=O)[C@@H]2CCCN2C(=O)[C@H](CC(C)C)NC(=O)[C@H](CCCNC(=N)N)NC(=O)[C@@H](NC(C)=O)CSSC[C@@H](C(N)=O)NC(=O)[C@@H]2CCCN2C(=O)[C@H](CC(C)C)NC(=O)CNC1=O` [Compound 75] (Ac-CRLPWALQRIGLPC-NH2; disulfide 1-14), the IC50 at PCSK9 (setting [1]) is greater than 50 µM; on PCSK9Δhelix, 49.5 µM; in the assay with His-EGF(A)-Fc it was greater than 50 µM.
For the compound `CC[C@H](C)[C@@H]1NC(=O)[C@H](CCCNC(=N)N)NC(=O)[C@H](CCC(N)=O)NC(=O)[C@H](CC(C)C)NC(=O)[C@H](CC(N)=O)NC(=O)[C@H](C)NC(=O)[C@@H]2CCCN2C(=O)[C@H](CC(C)C)NC(=O)[C@H](CCCNC(=N)N)NC(=O)[C@@H](NC(C)=O)CSSC[C@@H](C(N)=O)NC(=O)[C@@H]2CCCN2C(=O)[C@H](CC(C)C)NC(=O)CNC1=O` [Compound 76] (Ac-CRLPANLQRIGLPC-NH2; disulfide 1-14), the IC50 on PCSK9 (setting [1]) was greater than 50 µM; at PCSK9Δhelix it was 49.5 µM; in the assay on His-EGF(A)-Fc it was greater than 50 µM.
Take `CC[C@H](C)[C@@H]1NC(=O)[C@H](CCCNC(=N)N)NC(=O)[C@H](CCC(N)=O)NC(=O)[C@H](CC(C)C)NC(=O)[C@H](CC(N)=O)NC(=O)[C@H](Cc2c[nH]c3ccccc23)NC(=O)[C@H](C)NC(=O)[C@H](CC(C)C)NC(=O)[C@H](CCCNC(=N)N)NC(=O)[C@@H](NC(C)=O)CSSC[C@@H](C(N)=O)NC(=O)[C@@H]2CCCN2C(=O)[C@H](CC(C)C)NC(=O)CNC1=O` [Compound 77] (Ac-CRLAWNLQRIGLPC-NH2; disulfide 1-14): the IC50 at PCSK9 (setting [1]) is greater than 50 µM; on PCSK9Δhelix, 6.02 µM; in the assay on His-EGF(A)-Fc, greater than 50 µM.
On to `CC[C@H](C)[C@@H]1NC(=O)[C@H](CCCNC(=N)N)NC(=O)[C@H](CCC(N)=O)NC(=O)[C@H](CC(C)C)NC(=O)[C@H](CC(N)=O)NC(=O)[C@H](Cc2c[nH]c3ccccc23)NC(=O)[C@@H]2CCCN2C(=O)[C@H](C)NC(=O)[C@H](CCCNC(=N)N)NC(=O)[C@@H](NC(C)=O)CSSC[C@@H](C(N)=O)NC(=O)[C@@H]2CCCN2C(=O)[C@H](CC(C)C)NC(=O)CNC1=O` [Compound 78] (Ac-CRAPWNLQRIGLPC-NH2; disulfide 1-14), for which the IC50 is greater than 50 µM at PCSK9 (setting [1]), 5.56 µM on PCSK9Δhelix and greater than 50 µM in the assay with His-EGF(A)-Fc.
Regarding `CC[C@H](C)[C@@H]1NC(=O)[C@H](CCCNC(=N)N)NC(=O)[C@H](CCC(N)=O)NC(=O)[C@H](CC(C)C)NC(=O)[C@H](CC(N)=O)NC(=O)[C@H](Cc2c[nH]c3ccccc23)NC(=O)[C@@H]2CCCN2C(=O)[C@H](CC(C)C)NC(=O)[C@H](C)NC(=O)[C@@H](NC(C)=O)CSSC[C@@H](C(N)=O)NC(=O)[C@@H]2CCCN2C(=O)[C@H](CC(C)C)NC(=O)CNC1=O` [Compound 79] (Ac-CALPWNLQRIGLPC-NH2; disulfide 1-14), the IC50 at PCSK9 (setting [1]) was greater than 50 µM; at PCSK9Δhelix, 1.53 µM; in the assay with His-EGF(A)-Fc, greater than 50 µM.
For the compound `CC[C@H](C)[C@@H]1NC(=O)[C@H](CCCNC(=N)N)NC(=O)[C@H](CCC(N)=O)NC(=O)[C@H](CC(C)C)NC(=O)[C@H](CC(N)=O)NC(=O)[C@H](Cc2c[nH]c3ccccc23)NC(=O)[C@@H]2CCCN2C(=O)[C@H](CC(C)C)NC(=O)[C@H](CCCNC(=N)N)NC(=O)[C@@H](NC(C)=O)CSSC[C@@H](C(N)=O)NC(=O)CNC(=O)CNC(=O)CNC1=O` [Compound 81] (Ac-CRLPWNLQRIGGGC-NH2; disulfide 1-14), the IC50 on PCSK9 (setting [1]) is greater than 50 µM; on PCSK9Δhelix it was 28.8 µM; in the assay on His-EGF(A)-Fc, greater than 50 µM.
`CC(=O)N[C@H]1CSSC[C@@H](C(N)=O)NC(=O)CCCCCCCCCNC(=O)[C@H](CCCNC(=N)N)NC(=O)[C@H](CCC(N)=O)NC(=O)[C@H](CC(C)C)NC(=O)[C@H](CC(N)=O)NC(=O)[C@H](Cc2c[nH]c3ccccc23)NC(=O)[C@@H]2CCCN2C(=O)[C@H](CC(C)C)NC(=O)[C@H](CCCNC(=N)N)NC1=O` [Compound 84] (Ac-CRLPWNLQR[NH(CH2)9CO]C-NH2; disulfide 1-11): the IC50 on PCSK9 (setting [1]), on PCSK9Δhelix and in the assay on His-EGF(A)-Fc was greater than 50 µM each time. The “inhibition in the PCSK9Δhelix/Ab20 binding assay” value at PCSK9Δhelix is “removes inhibition”.
In the case of `CC(=O)N[C@H]1CSSC[C@@H](C(N)=O)NC(=O)CCCCCCCCNC(=O)[C@H](CCCNC(=N)N)NC(=O)[C@H](CCC(N)=O)NC(=O)[C@H](CC(C)C)NC(=O)[C@H](CC(N)=O)NC(=O)[C@H](Cc2c[nH]c3ccccc23)NC(=O)[C@@H]2CCCN2C(=O)[C@H](CC(C)C)NC(=O)[C@H](CCCNC(=N)N)NC1=O` [Compound 85] (Ac-CRLPWNLQR[NH(CH2)8CO]C-NH2; disulfide 1-11), the IC50 at PCSK9 (setting [1]), at PCSK9Δhelix and in the assay on His-EGF(A)-Fc was greater than 50 µM in each case. The “inhibition in the PCSK9Δhelix/Ab20 binding assay” value on PCSK9Δhelix is on record as “removes inhibition”.
In the case of `CC(=O)N[C@H]1CSSC[C@@H](C(N)=O)NC(=O)CCCCCCCNC(=O)[C@H](CCCNC(=N)N)NC(=O)[C@H](CCC(N)=O)NC(=O)[C@H](CC(C)C)NC(=O)[C@H](CC(N)=O)NC(=O)[C@H](Cc2c[nH]c3ccccc23)NC(=O)[C@@H]2CCCN2C(=O)[C@H](CC(C)C)NC(=O)[C@H](CCCNC(=N)N)NC1=O` [Compound 86] (Ac-CRLPWNLQR[Aoc]C-NH2; disulfide 1-11), the IC50 on PCSK9 (setting [1]), at PCSK9Δhelix and with His-EGF(A)-Fc was greater than 50 µM each time. Moreover, on PCSK9Δhelix, the “inhibition in the PCSK9Δhelix/Ab20 binding assay” value was “removes inhibition”.
Consider `CC[C@H](C)[C@@H]1NC(=O)[C@H](CCCNC(=N)N)NC(=O)[C@H](CCCCN)NC(=O)[C@H](CC(C)C)NC(=O)[C@H](CC(N)=O)NC(=O)[C@H](Cc2c[nH]c3ccccc23)NC(=O)[C@H](CC(C)C)NC(=O)[C@@H](NC(=O)CNC(C)=O)CSSC[C@@H](C(=O)N[C@@H](Cc2c[nH]c3ccccc23)C(=O)N[C@@H](Cc2ccccc2)C(N)=O)NC(=O)[C@H](CCC(N)=O)NC(=O)[C@H](CO)NC(=O)CNC1=O` [Compound 87] (Ac-GCLWNLKRIGSQCWF-NH2; disulfide 2-13 (inferred)), for which the IC50 on PCSK9 (setting [1]) was greater than 50 µM; at PCSK9Δhelix, 9.53 µM; with His-EGF(A)-Fc, greater than 50 µM.
On to `CC[C@H](C)[C@@H]1NC(=O)[C@H](CCCNC(=N)N)NC(=O)[C@H](C)NC(=O)[C@H](CC(C)C)NC(=O)[C@H](CC(N)=O)NC(=O)[C@H](Cc2c[nH]c3ccccc23)NC(=O)[C@H](CC(C)C)NC(=O)[C@@H](NC(=O)[C@H](Cc2ccccc2)NC(C)=O)CSSC[C@@H](C(=O)N[C@@H](Cc2c[nH]c3ccccc23)C(=O)N[C@@H](Cc2ccccc2)C(N)=O)NC(=O)[C@H](CCC(N)=O)NC(=O)[C@H](CO)NC(=O)CNC1=O` [Compound 88] (Ac-FCLWNLARIGSQCWF-NH2; disulfide 2-13), for which the IC50 was 17.9 µM on PCSK9 (Example 7), 7.46 µM on PCSK9Δhelix and greater than 50 µM with His-EGF(A)-Fc.
In the case of `CC[C@H](C)[C@@H]1NC(=O)[C@H](CCCNC(=N)N)NC(=O)[C@H](CCCCN)NC(=O)[C@H](CC(C)C)NC(=O)[C@H](CC(N)=O)NC(=O)[C@H](Cc2c[nH]c3ccccc23)NC(=O)[C@H](CC(C)C)NC(=O)[C@@H](NC(=O)[C@@H](N)Cc2c[nH]c3ccccc23)CSSC[C@@H](C(=O)N[C@@H](Cc2c[nH]c3ccccc23)C(=O)N[C@@H](Cc2ccccc2)C(N)=O)NC(=O)[C@H](CCC(N)=O)NC(=O)[C@H](CO)NC(=O)CNC1=O` [Compound 89] (H-WCLWNLKRIGSQCWF-NH2; disulfide 2-13), the IC50 came out at 6.9 µM at PCSK9 (setting [1]), 2.98 µM on PCSK9Δhelix and 38.4 µM with His-EGF(A)-Fc.

For the origin of these results see US11034725B2, “Compositions and methods for treating cardiovascular disease” (Genentech, Inc., priority 2016, dated 2021).
